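How tested: cells in 96-well plates exposed to compound for 48 hours at five concentrations. TGI: total growth inhibition.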 Bounds are passed on as bounds.

This note sets out measurements from PubChem BioAssay (NCI).

Test systems include MOLT-4 leukemia; RPMI-8226 leukemia; HOP-62 NSCLC; SK-MEL-5 melanoma; SNB-19 CNS; K-562 leukemia; SN12C renal; UO-31 renal; T-47D breast; SK-OV-3 ovarian; OVCAR-8 ovarian; LOX IMVI melanoma; CCRF-CEM leukemia; 786-0 renal; MDA-MB-231 breast; HT29 colon; HCC-2998 colon.
What all share (experiment): DTP human tumour cell line panel, 48 h

Turning to `O=C(O)CC1NC(/C(=C/c2ccccc2)NC(=O)c2ccccc2)OC1=O` (configuration not stated), the TGI in the assay on MOLT-4 leukemia amounted to 45.1 µM; with RPMI-8226 leukemia it was 63.4 µM; with HOP-62 NSCLC, 37.2 µM; in the assay on SK-MEL-5 melanoma it was 32.3 µM; with SNB-19 CNS, 67.6 µM; in the assay on K-562 leukemia, 56 µM. Further, the TGI in the assay with SN12C renal is > 100 µM; with UO-31 renal, 59 µM; with T-47D breast, > 100 µM; in the assay on SK-OV-3 ovarian, > 100 µM; with OVCAR-8 ovarian, 66.5 µM; in the assay on LOX IMVI melanoma, 36 µM. Further, the concentration for total growth inhibition (TGI) is 86.6 µM in the assay with CCRF-CEM leukemia; > 100 µM in the assay with 786-0 renal; 69.7 µM in the assay with MDA-MB-231 breast; > 100 µM with HT29 colon; > 100 µM in the assay with HCC-2998 colon.

`Nc1ccc(Oc2ccc(C34CC5CC6C3CC3CC4C(C5)C6(c4ccc(Oc5ccc(N)cc5)cc4)C3)cc2)cc1`: the TGI in the assay with MOLT-4 leukemia is 28.3 µM; in the assay on RPMI-8226 leukemia it was 47.5 µM; with HOP-62 NSCLC, 53.6 µM; in the assay on SK-MEL-5 melanoma, 5.27 µM; with SNB-19 CNS, > 61.4 µM; in the assay with K-562 leukemia, 40.5 µM. Besides, the TGI with SN12C renal was > 100 µM; in the assay on UO-31 renal, > 100 µM; in the assay with T-47D breast, > 81.5 µM; in the assay with SK-OV-3 ovarian, 53.9 µM; with OVCAR-8 ovarian it was > 100 µM; in the assay with LOX IMVI melanoma, > 76.1 µM. Besides, the TGI in the assay with CCRF-CEM leukemia was > 63.6 µM; with 786-0 renal it was 45.2 µM; with MDA-MB-231 breast it was 65.7 µM; in the assay with HT29 colon, > 100 µM; in the assay with HCC-2998 colon, 38.9 µM.

Consider `C1C2CC3CC1CC(Nc1nc(NC45CC6CC(CC(C6)C4)C5)nc(NC45CC6CC(CC(C6)C4)C5)n1)(C2)C3`, for which the total growth inhibition concentration (TGI) with MOLT-4 leukemia is > 100 µM; with RPMI-8226 leukemia, > 100 µM; with HOP-62 NSCLC it was > 100 µM; with SK-MEL-5 melanoma, > 42.8 µM; with SNB-19 CNS, > 100 µM; in the assay with K-562 leukemia, > 100 µM. Besides, the total growth inhibition concentration (TGI) was > 100 µM in the assay on SN12C renal; > 100 µM with UO-31 renal; > 100 µM in the assay with T-47D breast; > 100 µM in the assay with SK-OV-3 ovarian; > 65.5 µM in the assay on OVCAR-8 ovarian; > 52.1 µM in the assay on LOX IMVI melanoma. The TGI with CCRF-CEM leukemia was > 100 µM; in the assay with 786-0 renal, > 44.1 µM; with MDA-MB-231 breast it was > 100 µM; in the assay with HT29 colon it was > 100 µM; in the assay with HCC-2998 colon it was > 100 µM.

As for `C=C1C(=O)C[C@H]2C(=C)C(=O)O[C@@H]2C2C1CC[C@@]2(C)O` (some centres not stated), the TGI in the assay on MOLT-4 leukemia, in the assay with RPMI-8226 leukemia, with HOP-62 NSCLC, in the assay on SK-MEL-5 melanoma, in the assay with SNB-19 CNS and with K-562 leukemia was > 100 µM in each case. In addition, the concentration for total growth inhibition (TGI) with SN12C renal is > 100 µM; with UO-31 renal it was 74.2 µM; with T-47D breast, 68.8 µM; in the assay on SK-OV-3 ovarian, > 100 µM; in the assay on OVCAR-8 ovarian it was > 100 µM; in the assay on LOX IMVI melanoma, 68.8 µM. Moreover, the total growth inhibition concentration (TGI) in the assay with CCRF-CEM leukemia is > 100 µM; in the assay with 786-0 renal, 77.7 µM; in the assay with MDA-MB-231 breast it was 75.2 µM; with HT29 colon it was 41.1 µM; in the assay with HCC-2998 colon it was 38.1 µM.

As to `O=C(NCC(=O)N1CCCC1C(=O)OC(=O)C1CCCN1C(=O)CNC(=O)OCc1ccccc1)OCc1ccccc1` (configuration not stated), the TGI in the assay with MOLT-4 leukemia was 67.1 µM; in the assay with RPMI-8226 leukemia, 70.2 µM; in the assay on HOP-62 NSCLC it was 77 µM; with SK-MEL-5 melanoma, 62.3 µM; in the assay on SNB-19 CNS, > 100 µM; with K-562 leukemia, 72.8 µM. Also, the total growth inhibition concentration (TGI) was > 100 µM in the assay with SN12C renal; > 100 µM in the assay with UO-31 renal; > 100 µM in the assay on T-47D breast; > 100 µM in the assay with SK-OV-3 ovarian; > 100 µM with OVCAR-8 ovarian; 36.2 µM in the assay on LOX IMVI melanoma. The concentration for total growth inhibition (TGI) is > 100 µM in the assay with CCRF-CEM leukemia; > 100 µM in the assay with 786-0 renal; 54.7 µM with MDA-MB-231 breast; 79.2 µM in the assay with HT29 colon; > 100 µM in the assay on HCC-2998 colon.

Turning to `CC1(c2cccs2)CC(c2cccs2)=C(C#N)C(=C(C#N)C#N)N1` (configuration not stated), the concentration for total growth inhibition (TGI) with MOLT-4 leukemia was > 100 µM; in the assay on RPMI-8226 leukemia, 61.5 µM; in the assay on HOP-62 NSCLC, 39.7 µM; in the assay on SK-MEL-5 melanoma, 28.8 µM; in the assay with SNB-19 CNS, 36.6 µM; in the assay on K-562 leukemia, > 100 µM. For the same compound, the total growth inhibition concentration (TGI) in the assay with SN12C renal is 35.6 µM; with UO-31 renal, 34.8 µM; in the assay on T-47D breast it was 39.4 µM; in the assay with SK-OV-3 ovarian it was 37.1 µM; with OVCAR-8 ovarian, 42.9 µM; in the assay with LOX IMVI melanoma, 32.4 µM. Besides, the TGI in the assay with CCRF-CEM leukemia was 27.9 µM; in the assay with 786-0 renal it was 35 µM; in the assay on MDA-MB-231 breast, 50.6 µM; with HT29 colon, 34.4 µM; in the assay on HCC-2998 colon it was 31.1 µM.
